Among the data in US20120015907A1, “Furopyridine compounds and uses thereof” (NOVARTIS AG, priority 2010, published 2012) are IC50 values, retold here.

“And” between values parts separate entries of the source, which are not always exact repeats. Identical values can stand only once.

The first assay has as its target T1, HCV polymerase (Hepatitis C virus genotype 1b, UniProt Q9WMX2).
T1 construct: (His)6 (C)
Briefly: biochemical. The conditions noted are these: NS5B polymerase IC50 μM, polymerase assay of Biological Example 1.
Molecule `CNC(=O)c1c(-c2ccc(C)cc2)oc2nc(N(CCCCCP(C)(=O)O)S(C)(=O)=O)c(C3CC3)cc12` [Example 23.999991, 5-(N-(5-cyclopropyl-3-(methylcarbamoyl)-2-p-tolylfuro[2,3-b]pyridin-6-yl)methylsulfonamido)pentyl (methyl)phosphinic acid] returned an IC50 of 0.004 µM.

The assay is the same for the next values; noted with them: polymerase assay of Biological Example 1; read-out: NS5B polymerase IC50.
Turning to `CNC(=O)c1c(-c2ccc(F)cc2)oc2nc(N(C)S(C)(=O)=O)c(CCCCC(=O)N3CCC[C@H]3C(N)=O)cc12` [Example 4.8, (S)-5-(5-(2-carbamoylpyrrolidin-1-yl)-5-oxopentyl)-2-(4-fluorophenyl)-N-methyl-6-(N-methylmethylsulfonamido)furo[2,3-b]pyridine-3-carboxamide], the IC50 worked out at 0.051 µM.

As for `CCc1cc2c(C(=O)NC)c(-c3ccc(F)cc3)oc2nc1N(CCCCC(=O)N(C)C)S(C)(=O)=O` [Example 22.992, 6-(N-(5-(dimethylamino)-5-oxopentyl)methylsulfonamido)-5-ethyl-2-(4-fluorophenyl)-N-methylfuro[2,3-b]pyridine-3-carboxamide], the IC50 stood at 0.041 µM.

As to `CNC(=O)c1c(-c2ccc(C)cc2)oc2nc(N(CCCCC(C)(C)C(=O)O)S(C)(=O)=O)c(C3CC3)cc12` [Example 29.2, 6-(N-(5-cyclopropyl-3-(methylcarbamoyl)-2-p-tolylfuro[2,3-b]pyridin-6-yl)methylsulfonamido)-2,2-dimethylhexanoic acid], the IC50 was determined as 0.001 µM.

As to `CNC(=O)c1c(-c2ccc(C)cc2)oc2nc(N(CCC3CCCC3C(=O)O)S(C)(=O)=O)c(I)cc12` (centres unmarked) [Example 18.999, 2-(2-(N-(5-iodo-3-(methylcarbamoyl)-2-p-tolylfuro[2,3-b]pyridin-6-yl)methylsulfonamido)ethyl)cyclopentanecarboxylic acid], the IC50 was determined as 0.004 µM.

Regarding `CNC(=O)c1c(-c2ccc(C)cc2)oc2nc(N(CCCC3(C(=O)O)CCOCC3)S(C)(=O)=O)c(C3CC3)cc12` [Example 28.4, 4-(3-(N-(5-cyclopropyl-3-(methylcarbamoyl)-2-p-tolylfuro[2,3-b]pyridin-6-yl)methylsulfonamido)propyl)tetrahydro-2H-pyran-4-carboxylic acid], the IC50 was 0.003 µM.

Take `CCc1ccc(-c2oc3nc(N(CCCC(C)(C)C(=O)O)S(C)(=O)=O)c(C4CC4)cc3c2C(=O)NC)cc1` [Example 29, 5-{[5-Cyclopropyl-2-(4-ethyl-phenyl)-3-methylcarbamoyl-furo[2,3-b]pyridin-6-yl]-methanesulfonyl-amino}-2,2-dimethyl-pentanoic acid]: the IC50 was 0.001 µM.

With `CNC(=O)c1c(-c2ccc(C)cc2)oc2nc(N(CCC[C@@H](C)C(=O)N[C@@H](CO)Cc3ccccc3)S(C)(=O)=O)c(C3CC3)cc12` [Example 47.1], the IC50 is 0.668 µM.

Consider `CCc1cc2c(C(=O)NC)c(-c3ccc(F)cc3)oc2nc1N(CC1CCOCC1)S(C)(=O)=O` [Example 21.994, 5-ethyl-2-(4-fluorophenyl)-N-methyl-6-(N-((tetrahydro-2H-pyran-4-yl)methyl)methylsulfonamido)furo[2,3-b]pyridine-3-carboxamide], for which the IC50 worked out at 0.147 µM.

Turning to `CNC(=O)c1c(-c2ccc(C)cc2)oc2nc(N(CCC[C@@H](C)C(=O)N[C@H](C(=O)OC)c3ccccc3)S(C)(=O)=O)c(C3CC3)cc12` [Example 29.99997, (S)-methyl 2-((R)-5-(N-(5-cyclopropyl-3-(methylcarbamoyl)-2-p-tolylfuro[2,3-b]pyridin-6-yl)methylsulfonamido)-2-methylpentanamido)-2-phenylacetate], the IC50 is 0.004 µM.

`CCc1cc2c(C(=O)NC)c(-c3ccc(F)cc3)oc2nc1N(CCCN1CCCC1=O)S(C)(=O)=O` [Example 22.996, 5-ethyl-2-(4-fluorophenyl)-N-methyl-6-(N-(3-(2-oxopyrrolidin-1-yl)propyl)methylsulfonamido)furo[2,3-b]pyridine-3-carboxamide]: the IC50 worked out at 0.059 µM.

As to `CNC(=O)c1c(-c2ccc(C)cc2)oc2nc(N(CCOCCCC(=O)O)S(C)(=O)=O)c(C3CC3)cc12` [Example 23.999998, 4-(2-(N-(5-cyclopropyl-3-(methylcarbamoyl)-2-p-tolylfuro[2,3-b]pyridin-6-yl)methylsulfonamido)ethoxy)butanoic acid], the IC50 amounted to 0.005 µM.

With `CNC(=O)c1c(-c2ccc(F)cc2)oc2nc(N(CCCN3CCNC3=O)S(C)(=O)=O)c(I)cc12` [Example 18.91, 2-(4-fluorophenyl)-5-iodo-N-methyl-6-(N-(3-(2-oxoimidazolidin-1-yl)propyl)methylsulfonamido)furo[2,3-b]pyridine-3-carboxamide], the IC50 came out at 0.133 µM.

Consider `CCc1ccc(-c2oc3nc(N(CCCCCC(=O)O)S(C)(=O)=O)c(C4CC4)cc3c2C(=O)NC)cc1` [Example 29.9, 6-(N-(5-cyclopropyl-2-(4-ethylphenyl)-3-(methylcarbamoyl)furo[2,3-b]pyridin-6-yl)methylsulfonamido) hexanoic acid], for which the IC50 was 0.002 µM.

As to `CNC(=O)c1c(-c2ccc(C)cc2)oc2nc(N(CCCCC#N)S(C)(=O)=O)c(C3CC3)cc12` [Example 29.6, 6-(N-(4-cyanobutyl)methylsulfonamido)-5-cyclopropyl-N-methyl-2-p-tolylfuro[2,3-b]pyridine-3-carboxamide], the IC50 amounted to 0.002 µM.

As to `CNC(=O)c1c(-c2ccc(C)cc2)oc2nc(N(CCCNS(=O)(=O)C(F)(F)F)S(C)(=O)=O)c(C3CC3)cc12` [Example 23.999992, 5-cyclopropyl-N-methyl-2-p-tolyl-6-(N-(3-(trifluoromethylsulfonamido)propyl)methylsulfonamido) furo[2,3-b]pyridine-3-carboxamide], the IC50 worked out at 0.002 µM.

In the case of `CNC(=O)c1c(-c2ccc(C)cc2)oc2nc(N(CCC[C@H](C)C(=O)O)S(C)(=O)=O)c(C3CC3)cc12` [Example 47, (S)-5-(N-(5-cyclopropyl-3-(methylcarbamoyl)-2-p-tolylfuro[2,3-b]pyridin-6-yl)methylsulfonamido)-2-methylpentanoic acid], the IC50 came out at 0.002 µM.

On to `CCc1cc2c(C(=O)NC)c(-c3ccc(F)cc3)oc2nc1N(CCCN(C)S(=O)(=O)c1ccccc1)S(C)(=O)=O` [Example 23.9, 5-ethyl-2-(4-fluorophenyl)-N-methyl-6-(N-(3-(N-methylphenylsulfonamido)propyl)methylsulfonamido) furo[2,3-b]pyridine-3-carboxamide], for which the IC50 was determined as 0.074 µM.

On to `CCc1ccc(-c2oc3nc(N(CCOCC(C)(C)C(=O)O)S(C)(=O)=O)c(C4CC4)cc3c2C(=O)NC)cc1` [Example 41.1, 3-(2-(N-(5-Cyclopropyl-2-(4-ethylphenyl)-3-(methylcarbamoyl)furo[2,3-b]pyridin-6-yl)methylsulfonamido)ethoxy)-2,2-dimethylpropanoic acid], for which the IC50 came to 0.002 µM.

Consider `CNC(=O)c1c(-c2ccc(C)cc2)oc2nc(N(CCC[C@H](C)C(=O)N[C@@H](CO)Cc3ccccc3)S(C)(=O)=O)c(C3CC3)cc12` [Example 47.2], for which the IC50 amounted to 0.058 µM.

Consider `C=C(c1cc2c(C(=O)NC)c(-c3ccc(F)cc3)oc2nc1N(C)S(C)(=O)=O)C(F)(F)F` [Example 2.5, 2-(4-fluorophenyl)-N-methyl-6-(N-methylmethylsulfonamido)-5-(3,3,3-trifluoroprop-1-en-2-yl)furo[2,3-b]pyridine-3-carboxamide], for which the half-inhibitory concentration (IC50) is 0.662 µM.

In the case of `CNC(=O)c1c(-c2ccc(F)cc2)oc2nc(N(CCCn3ccnc3)S(C)(=O)=O)c(I)cc12` [Example 23.5, 6-(N-(3-(1H-imidazol-1-yl)propyl)methylsulfonamido)-2-(4-fluorophenyl)-5-iodo-N-methylfuro[2,3-b]pyridine-3-carboxamide], the IC50 is 0.151 µM and 0.035 µM.

Turning to `CCc1cc2c(C(=O)NC)c(-c3ccc(F)cc3)oc2nc1N(CCCS(=O)(=O)C(C)(C)C)S(C)(=O)=O` [Example 23.93, 6-(N-(3-(tert-butylsulfonyl)propyl)methylsulfonamido)-5-ethyl-2-(4-fluorophenyl)-N-methylfuro[2,3-b]pyridine-3-carboxamide], the IC50 turned out to be 0.044 µM.

Take `CNC(=O)c1c(-c2ccc(F)cc2)oc2nc(N(CCN3CCOCC3)S(C)(=O)=O)c(I)cc12` [Example 18.4, 2-(4-fluorophenyl)-5-iodo-N-methyl-6-(N-(2-morpholinoethyl)methylsulfonamido)furo[2,3-b]pyridine-3-carboxamide]: the 50% inhibitory concentration (IC50) amounted to 0.26 µM.

For `CNC(=O)c1c(-c2ccc(F)cc2)oc2nc(N(CCCC(C)(C)C(=O)O)S(C)(=O)=O)c(C3CC3)cc12` [Example 27.1, 5-(N-(5-cyclopropyl-2-(4-fluorophenyl)-3-(methylcarbamoyl)furo[2,3-6]pyridin-6-yl)methylsulfonamido)-2,2-dimethylpentanoic acid], the IC50 amounted to 0.012 µM.

`CCc1cc2c(C(=O)NC)c(-c3ccc(F)cc3)oc2nc1N(CCCC(C)(C)O)S(C)(=O)=O` [Example 22.94, 5-ethyl-2-(4-fluorophenyl)-6-(N-(4-hydroxy-4-methylpentyl)methylsulfonamido)-N-methylfuro[2,3-b]pyridine-3-carboxamide]: the IC50 is 0.031 µM.

With `CNC(=O)c1c(-c2ccc(C)cc2)oc2nc(N(CCCCCCC(=O)O)S(C)(=O)=O)c(C3CC3)cc12` [Example 29.996, 7-(N-(5-cyclopropyl-3-(methylcarbamoyl)-2-p-tolylfuro[2,3-b]pyridin-6-yl)methylsulfonamido) heptanoic acid], the IC50 amounted to 0.007 µM.

As to `CCc1cc2c(C(=O)NC)c(-c3ccc(F)cc3)oc2nc1N(CCCN1CCOCC1)S(C)(=O)=O` [Example 21.93, 5-ethyl-2-(4-fluorophenyl)-N-methyl-6-(N-(3-morpholinopropyl)methylsulfonamido)furo[2,3-b]pyridine-3-carboxamide], the IC50 stood at 0.186 µM.

As for `CNC(=O)c1c(-c2ccc(F)cc2)oc2nc(N(CCO)S(C)(=O)=O)c(I)cc12` [Example 18.1, 2-(4-fluorophenyl)-6-(N-(2-hydroxyethyl)methylsulfonamido)-5-iodo-N-methylfuro[2,3-b]pyridine-3-carboxamide], the IC50 came out at 0.451 µM.

Broadly, the IC50 is the concentration needed to halve the response being measured.
